Experimental data reported in publication PMC4717575, “Characterization of a cold-active and salt tolerant esterase identified by functional screening of Arctic metagenomic libraries” (BMC Biochemistry, 2016).

System: T1, Lip3
T1 construct: catalytic triad Ser150, Asp207, His267; primers encode N-terminal MNNYIID and C-terminal CLKSLL before the His tag
Test: p-nitrophenol release at […] nm, Lineweaver-Burk
Assay type: biochemical, uncultured bacterium
Conditions: 0.1 M Tris-HCl pH 8.0, 35 °C, 3 % acetonitrile

Compound	K M (M.10^-3)
CC(=O)Oc1ccc([N+](=O)[O-])cc1 [pNP-acetate]	2.38 ± 0.56 M∙10^−3
CCCC(=O)Oc1ccc([N+](=O)[O-])cc1 [pNP-butanoate]	1.05 ± 0.16 M∙10^−3
CCCCCCCCCC(=O)Oc1ccc([N+](=O)[O-])cc1 [pNP-decanoate]	1.03 ± 0.12 M∙10^−3
CCCCCCCC(=O)Oc1ccc([N+](=O)[O-])cc1 [pNP-octanoate]	0.36 ± 0.04 M∙10^−3
CCCCC(=O)Oc1ccc([N+](=O)[O-])cc1 [pNP-pentanoate]	1.52 ± 0.20 M∙10^−3
